The target of series [1] is c-MYC Pu22 G4 DNA. Put plainly: Microscale thermophoresis (MST), c-MYC Pu22 G4 DNA. In kind it is binding, human. The note with it: Cy5-labeled c-MYC Pu22 G4 DNA 25 nM; pH 7.4, 100 mM KCl; read-out: apparent Kd (MST). The protocol:
To evaluate the apparent binding affinities (Kd) for the compound series, we next used microscale thermophoresis (MST) with fluorescently labeled c-MYC Pu22 G4 DNA (Table S1). Overall, the measured MST binding results for compounds 2–11 corresponded well with the results from the FRET assay (Figures 2B and S3).
5′-Cy5 labeled G4 DNAs for this study were purchased from Eurofins Genomics. Stock solutions were prepared in water at 100 μM concentration. The sequences used are listed in Supporting Information Table S1. The G4 DNA sequences were folded in KCl buffer (10 mM phosphate, 100 mM KCl, pH 7.4) by heating at 95 °C for 5 min and then cooling to room temperature. All the experiments were performed in 10 mM phosphate pH 7.4, 100 mM KCl, and 0.05% Tween20. The labeled DNA concentration is held constant at 25 nM, and ligand concentration is varied depending on ligands Kd (16 1:3 dilutions). The samples were loaded into standard MST graded glass capillaries and initial fluorescence intensity of the capillary was measured using Monolith NT.115 (Nano Temper, Germany) with 20% LED power. The change in fluorescence with ligand’s concentrations were plotted in Excel and fitted through nonlinear equation to obtain the binding constants. […]
Microscale Thermophoresis (MST)
5'- Cy5 labelled G4 DNAs for this study were purchased from Eurofins Genomics. Stock solutions were prepared in water at […] concentration. The sequences used are listed in supplementary Table S1. The G4 DNA sequences were folded in KCl buffer (10 mM phosphate, 100 mM KCl, pH 7.4) by heating at 95 °C for 5 min and then cooling to room temperature. All the experiments were performed in 10 mM phosphate pH 7.4, 100 mM KCl, 0.05% Tween20. The labelled DNA concentration is held constant at 25 nM and ligand concentration is varied depending on ligands Kd (sixteen 1:3 dilutions). The samples were loaded into standard MST graded glass capillaries and initial fluorescence intensity of the capillary were measured using Monolith NT.115 (Nano Temper, Germany) with 20% LED power. The change in fluorescence with ligand's concentrations were plotted in Excel and fitted through non-linear equation to obtain the binding constants.
(1 picture or pasted object on this page, not shown here)

Series [2] has as its system G4 structure on DNA template (PEPu24T). Put plainly: Taq polymerase stop (primer extension) assay, G4 template. The format is biochemical. The note with it: compound 0.24 μM; compared to DMSO control. From the text:
To challenge all the synthesized compounds (2–11 and 25–29) in a more intricate context, we conducted a Taq polymerase stop assay to evaluate their capacity to impede DNA synthesis through G4 stabilization. In this assay, we compared the progress of the Taq DNA polymerase along two distinct DNA templates: one with a G4 structure (Figure 5) and another serving as a non-G4 control (Figure S21). If an external species (e.g., G4 ligand) binds and stabilizes the G4 structure, the polymerase will be partially halted. The extent of this DNA polymerase stalling is dependent on the ability of the compound to stabilize the G4 on the DNA template. The increased G4 stabilization can be detected as a reduction in the amount of newly synthesized DNA that has reached the end of the DNA template (full-length/end-product). Analysis of these shorter terminated DNA products will give information about the precise location of the DNA polymerase stalling with a single nucleotide resolution. If the ligand imposes little to no stabilization or binding, the G4 is readily resolved by the DNA polymerase, and no difference in the amount of DNA end-product can therefore be expected upon the addition of the compound.
Templates for the primer extension assay were created by annealing 25 nt TET labeled primer (1 μM final concentration) to either PEPu24T or a mutated sequence not forming a G4, PEPu24T mut, (1.25 μM final concentration) in 100 mM KCl by heating to 95 °C for 5 min and slowly cooling to room temperature. […] Compounds were added in the indicated concentration and incubated on ice for 10 min before starting the reaction by adding dNTPs (100 μM final concentration) to the reaction and transferring it to 37 °C. Reactions were stopped after 15 min by addition of 10 μL of formamide loading buffer (0.5% SDS, 25 mM EDTA, 95% v/v formamide and xylene-cyanol). Samples were then loaded on a 12% polyacrylamide gel containing 7 M urea and 25% formamide and imaged using an Amersham Typhoon. The images were quantified using ImageJ 1.53e software, and the percentage of full-length product compared to a sample without compound was calculated.
Templates for the primer extension assay were created by annealing 25nt TET labelled primer (1 µM final concentration) to either PEPu24T or a mutated sequence not forming a G4, PEPu24T mut, (1.25 µM final concentration) in 100 mM KCl by heating to 95 °C for 5 min and slowly cooling to room temperature. The reaction mixture (10 µl) contained 1X Taq Buffer with KCl (10 mM Tris-HCl pH 8.8, 50 mM KCl, detergent), 25 mM MgCl2, […]
[…] Compounds were added in the indicated concentration and incubated on ice for 10 min before starting the reaction by adding dNTPs (100 µM final concentration) to the reaction and transferring it to 37 °C. Reactions were stopped after 15 min by addition of 10 µl of formamide loading buffer (0,5% SDS, 25 mM EDTA, 95% v/v formamide and xylene-cyanol). Samples were then loaded on a 12% polyacrylamide gel containing 7 M urea and 25% formamide and imaged using an Amersham™ Typhoon™.
The images were quantified using ImageJ 1.53e software and the percentage of full-length product compared to a sample without compound was calculated. […]

A short description of series [3]: logD at pH 7.4. In kind it is physicochemical. The protocol: (§1) Physicochemical properties
(§2) The Physicochemical profiling (LogD, Solubility, Caco-2 cell permeability) was performed as previously
(§3) described.8 Cell viability was performed as described below.
(§4) Table S2. Pharmacokinetic Properties
(§5) Compound Structure logD, Solubility, Rat hepsa Human mics b

Series [4] is described as follows: Solubility at pH 7.4. In kind it is physicochemical. As for the experimental part: as §1, §2, §3, §4, §5
A short description of series [5]: Intrinsic clearance in rat hepatocytes. The format is in vitro ADME. The protocol: (§6) All compounds (2–11, 25–29) were screened for their logD and solubility at pH 7.4 and for their intrinsic clearance in rat hepatocytes and human microsomes (Table S2). […] Replacing the basic amine side chain to a methyl substituent in the quinazolines (25–29) still retained good solubility (134 to over 1000 μM) but increased clearance in both rat hepatocytes and human microsomes. The logD was low for compounds with a basic amine side chain (2–11) and increased slightly when the amine was replaced with a methyl (25–29). As expected, additional substituents also affected the logD with the chloro-substituents increasing logD the most.
(§7) a Intrinsic clearance in rat hepatocytes ((μL/min)/10^6 cells).b Intrinsic clearance in human microsomes (μL/min/mg). […]

Series [6] in a line: Intrinsic clearance in human microsomes. The note with it: read-out: Human mics: intrinsic clearance in human microsomes. The format is in vitro ADME. The protocol:
as §6, §7

Series [7] addresses Pu24T c-MYC G4 structure. The series can be described thus: Kd for binding to the Pu24T c-MYC G4 structure (supplementary CSV). Details: species or system human. As for the experimental part: 5′-Cy5 labeled G4 DNAs for this study were purchased from Eurofins Genomics. Stock solutions were prepared in water at 100 μM concentration. The sequences used are listed in Supporting Information Table S1. The G4 DNA sequences were folded in KCl buffer (10 mM phosphate, 100 mM KCl, pH 7.4) by heating at 95 °C for 5 min and then cooling to room temperature. All the experiments were performed in 10 mM phosphate pH 7.4, 100 mM KCl, and 0.05% Tween20. The labeled DNA concentration is held constant at 25 nM, and ligand concentration is varied depending on ligands Kd (16 1:3 dilutions). The samples were loaded into standard MST graded glass capillaries and initial fluorescence intensity of the capillary was measured using Monolith NT.115 (Nano Temper, Germany) with 20% LED power. The change in fluorescence with ligand’s concentrations were plotted in Excel and fitted through nonlinear equation to obtain the binding constants.
The Supporting Information is available free of charge at https://pubs.acs.org/doi/10.1021/acs.jmedchem.3c02127. • Experimental procedures and data; assay data, computational results, and all cell data; NMR (^1H and ^13C) spectra for all compounds (with the exception of a few intermediates); and HPLC UV traces for the final compounds (PDF) • Molecular formula strings and Kd values for binding to the Pu24T c-MYC G4 structure (CSV)

The test system of series [8] is c-MYC Pu22 G4 DNA. The series can be described thus: FRET melting assay, c-MYC Pu22 G4 DNA. The note with it: c-MYC Pu22 G4 DNA; 5-40 equiv. In kind it is binding, human. From the text:
The synthesized compounds (2–11) were first analyzed using a Förster resonance energy transfer (FRET) assay (Figure 2A). This assay measures the compounds’ ability to affect the thermal stability of fluorescently labeled DNA, in this case, the c-MYC Pu22 G4 DNA (Table S1). […] The addition of one methyl group to the quinazoline core (3) provides almost twice as strong thermal stability compared to 2. The addition of a second methyl group (4) further increased stabilization, albeit modestly (by 0.5 °C). This slight increase between 3 and 4 could stem from the suboptimal positioning of the added methyl substituent in relation to the guanines on the G4 surface, compared to other positions on the quinazoline ring. […] Furthermore, the methyl-substituted (4) and the methoxy-substituted (6) display a similar G4 stabilization despite the strong electrostatic character of the methoxy substituent compared to the neutral methyl group, which further supports that these interactions are dispersion-driven. This conclusion is further supported by the fact that the replacement of the methoxy group in 6 with chlorine in 7 results in a very similar stabilization as 3, 4, and 6.
Synthetic labeled oligonucleotides for the FRET study were purchased from Eurofins Genomics. Stock solutions were prepared in MQ-water at 100 μM concentration. The sequences used are listed in Supporting Information Table S1. All the oligonucleotides except Pu22 were prefolded in 10 mM lithium cacodylate buffer (pH 7.4), with 10 mM KCl and 90 mM LiCl by heating for 10 min at 95 °C and then cooling in fridge for at least 1 h. Pu22 was folded in 10 mM lithium cacodylate buffer (pH 7.4), with 2 mM KCl and 98 mM LiCl.
The FRET occurs between two dyes (5′-FAM as donor and 3′-TAMRA as acceptor) linked at both extremities of a DNA oligonucleotide. When the oligonucleotides are folded into G4 structures, the donor and acceptor are in proximity, which results in an energy transfer from the donor to the acceptor. This process can be detected by a reduction in the fluorescence emission of the donor. Fluorescence emission of the donor is recovered when the temperature increment triggers the thermal denaturation of the G4 structure. The experiments were performed in a Bio-Rad CFX96 real-time PCR device at temperatures from 10 to 95 °C at 1.5 °C/m heating rate using a 492 nm excitation wavelength and a 516 nm detection wavelength in 96-well plates. […] The stabilization (ΔTm) is calculated from comparison of Tm of the fluorescently labeled oligonucleotide in the presence or absence of the ligand. […]
The fluorescence resonance energy transfer (FRET) occurs between two dyes (5'-FAM as donor and 3'- TAMRA as acceptor) linked at both extremities of a DNA oligonucleotide. […]

SMILES strings stand for the structures. ≈ marks a conversion by molar mass, not a printed value.

As for `COc1ccc2nc(Nc3nc(C)cc(NCCCN(C)C)n3)nc(C)c2c1` [Compound 6, N4-(3-(Dimethylamino)propyl)-N2-(6-methoxy-4-methylquinazolin-2-yl)-6-methylpyrimidine-2,4-diamine], the results for the Kd in series [1] and in series [7] were 90 nM and 90 ± 10 nM, respectively. For the same compound, the “full-length DNA product” value in series [2] is “about 30%”. The compound further yielded a logD in series [3] of 0.1. Further, the solubility in series [4] was above 1000 µM. In series [5], the “Rat heps: intrinsic clearance in rat hepatocytes” value (shortened to “Rat heps: intrinsic clearance”) is < 1 (μL/min)/106 cells. In addition, in series [6], the microsomal CLint was below 3 µL/min/mg.

`Cc1cc(NCCCN(C)C)nc(Nc2nc(C)c3cc(Cl)ccc3n2)n1` [Compound 7, N2-(6-Chloro-4-methylquinazolin-2-yl)-N4-(3-(dimethylamino)propyl)-6-methylpyrimidine-2,4-diamine]: the values for the Kd in series [1] and in series [7] were 170 nM and 170 ± 20 nM, respectively. Also, the “full-length DNA product” value in series [2] is “about 30%”. The same compound had a logD in series [3] of 0.9. In series [4], this compound yielded a solubility of 990 µM (≈ 382 µg/mL). Moreover, the “Rat heps: intrinsic clearance” value in series [5] is 1 (μL/min)/106 cells. Also, the microsomal CLint in series [6] is below 3 µL/min/mg.

As for `Cc1cc(NCCCN(C)C)nc(Nc2cnc3ccccc3n2)n1` [Compound 8, N4-(3-(Dimethylamino)propyl)-6-methyl-N2-(quinoxalin-2-yl)pyrimidine-2,4-diamine], the “ability to stabilize the G4 structure (in words)” value in series [8] is given as “almost no ability to stabilize the G4 structure”. For the same compound, the Kd in series [1] and in series [7] was above 10000 nM each time. This compound yielded a logD in series [3] of 1.4. Besides, the solubility in series [4] was above 1000 µM. Moreover, the “Rat heps: intrinsic clearance” value in series [5] is recorded as 38 (μL/min)/106 cells. Further, in series [6], the microsomal CLint turned out to be 8 µL/min/mg.

For orientation: logD means the decadic logarithm of the distribution of all forms, ionised or not, between an organic phase and buffer at a given pH. What is called solubility is the dissolved amount per volume that the medium holds. Read a low solubility as a poorly soluble substance.
